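96-well plates; 48 h exposure; 5 concentrations. Endpoints by linear interpolation between flanking doses. Not reached: highest tested concentration assigned. At the GI50, growth is halved.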 The source made the active and inactive calls. No stated cut-off is given here; in the data, active = GI50 up to about 1.1 µM and inactive = higher.
What was measured:
Assay in all cases: NCI tumour cell line growth inhibition, 48 h
KM12 = tested on: KM12
NCI-H460 = tested on: NCI-H460
CCRF-CEM = tested on: CCRF-CEM
Malme-3M = tested on: Malme-3M
SK-MEL-2 = tested on: SK-MEL-2
SK-OV-3 = tested on: SK-OV-3
M14 = tested on: M14
IGROV-1 = tested on: IGROV-1
MDA-MB-231 = tested on: MDA-MB-231
SN12C = tested on: SN12C
HT-29 = tested on: HT-29
UACC-257 = tested on: UACC-257
SF-295 = tested on: SF-295
OVCAR-5 = tested on: OVCAR-5
MDA-N = tested on: MDA-N
SK-MEL-28 = tested on: SK-MEL-28
U-251 = tested on: U-251
HCT-116 = tested on: HCT-116
RPMI-8226 = tested on: RPMI-8226
HCC 2998 = tested on: HCC 2998
LOX IMVI = tested on: LOX IMVI
HL-60 = tested on: HL-60
SK-MEL-5 = tested on: SK-MEL-5
NCI-H522 = tested on: NCI-H522
ACHN = tested on: ACHN
DU-145 = tested on: DU-145
SNB-19 = tested on: SNB-19
HOP-62 = tested on: HOP-62
NCI/ADR-RES = tested on: NCI/ADR-RES
OVCAR-4 = tested on: OVCAR-4
HCT-15 = tested on: HCT-15
786-0 = tested on: 786-0
Hs-578T = tested on: Hs-578T
UACC-62 = tested on: UACC-62
SR = tested on: SR
SW-620 = tested on: SW-620
PC-3 = tested on: PC-3
SNB-75 = tested on: SNB-75
HOP-92 = tested on: HOP-92
OVCAR-8 = tested on: OVCAR-8
MCF7 = tested on: MCF7
BT-549 = tested on: BT-549
A498 = tested on: A498
SF-268 = tested on: SF-268
TK-10 = tested on: TK-10
MDA-MB-435 = tested on: MDA-MB-435
UO-31 = tested on: UO-31
MOLT-4 = tested on: MOLT-4
K562 = tested on: K562
EKVX = tested on: EKVX
SF-539 = tested on: SF-539
RXF 393 = tested on: RXF 393
CAKI-1 = tested on: CAKI-1
A549 = tested on: A549
NCI-H23 = tested on: NCI-H23
T47D = tested on: T47D
COLO 205 = tested on: COLO 205
OVCAR-3 = tested on: OVCAR-3
NCI-H226 = tested on: NCI-H226

## CCCCCCCCCCCCCCCCCCNc1ccn(C2OC(COP(=O)(O)OCC3OC(n4cc(F)c(=O)[nH]c4=O)CC3O)C(O)C2O)c(=O)n1 (stereo not drawn)
KM12
  GI50: 15.5 µM (inactive)
NCI-H460
  GI50: 3.53 µM (inactive)
CCRF-CEM
  GI50: 1.24 µM (inactive)
Malme-3M
  GI50: 0.634 µM (active)
SK-MEL-2
  GI50: 51.9 µM (inactive)
SK-OV-3
  GI50: 27.5 µM (inactive)
M14
  GI50: 3.31 µM (inactive)
IGROV-1
  GI50: 10.1 µM (inactive)
MDA-MB-231
  GI50: > 100 µM (inactive)
SN12C
  GI50: 3.29 µM (inactive)
HT-29
  GI50: 5.38 µM (inactive)
UACC-257
  GI50: > 89.7 µM (inactive)
SF-295
  GI50: 0.47 µM (active)
OVCAR-5
  GI50: 15 µM (inactive)
MDA-N
  GI50: 46.6 µM (inactive)
SK-MEL-28
  GI50: > 100 µM (inactive)
U-251
  GI50: 6.28 µM (inactive)
HCT-116
  GI50: 2.98 µM (inactive)
RPMI-8226
  GI50: 1.44 µM (inactive)
HCC 2998
  GI50: < 0.01 µM (active)
LOX IMVI
  GI50: 1.36 µM (inactive)
HL-60
  GI50: 0.678 µM (active)
SK-MEL-5
  GI50: 23.1 µM (inactive)
NCI-H522
  GI50: 4.83 µM (inactive)
ACHN
  GI50: 0.778 µM (active)
DU-145
  GI50: 2.43 µM (inactive)
SNB-19
  GI50: 20.2 µM (inactive)
HOP-62
  GI50: 0.356 µM (active)
NCI/ADR-RES
  GI50: 1.33 µM (inactive)
OVCAR-4
  GI50: 60 µM (inactive)
HCT-15
  GI50: 16.3 µM
786-0
  GI50: 2.19 µM (inactive)
Hs-578T
  GI50: 17.8 µM (inactive)
UACC-62
  GI50: 1.19 µM (inactive)
SR
  GI50: 0.337 µM (active)
SW-620
  GI50: 42.8 µM (inactive)
PC-3
  GI50: 1.53 µM (inactive)
SNB-75
  GI50: 1.18 µM (inactive)
HOP-92
  GI50: > 100 µM (inactive)
OVCAR-8
  GI50: 1.36 µM (inactive)
MCF7
  GI50: 0.274 µM (active)
BT-549
  GI50: 11.7 µM (inactive)
A498
  GI50: 33.3 µM (inactive)
SF-268
  GI50: 0.0914 µM (active)
TK-10
  GI50: 14.7 µM (inactive)
MDA-MB-435
  GI50: 37.9 µM (inactive)
UO-31
  GI50: 0.498 µM (active)
MOLT-4
  GI50: 1.63 µM (inactive)
K562
  GI50: 12.1 µM (inactive)
EKVX
  GI50: 14.5 µM (inactive)
SF-539
  GI50: 0.207 µM (active)
RXF 393
  GI50: 12.6 µM (inactive)
CAKI-1
  GI50: 1.16 µM (inactive)
A549
  GI50: 0.251 µM (active)
NCI-H23
  GI50: 1.48 µM (inactive)
T47D
  GI50: 27.9 µM (inactive)
COLO 205
  GI50: 16.1 µM (inactive)
OVCAR-3
  GI50: 7.67 µM (inactive)

## COCCc1c(C)c(C#N)c2n(C)c3ccccc3n2c1=O
KM12
  GI50: > 10 µM (inactive)
NCI-H460
  GI50: > 10 µM (inactive)
Malme-3M
  GI50: > 10 µM (inactive)
SK-MEL-2
  GI50: > 10 µM (inactive)
SK-OV-3
  GI50: > 10 µM (inactive)
M14
  GI50: > 10 µM (inactive)
IGROV-1
  GI50: > 10 µM (inactive)
MDA-MB-231
  GI50: > 10 µM (inactive)
SN12C
  GI50: > 10 µM (inactive)
HT-29
  GI50: > 10 µM (inactive)
UACC-257
  GI50: > 10 µM (inactive)
SF-295
  GI50: > 10 µM (inactive)
OVCAR-5
  GI50: > 10 µM (inactive)
MDA-N
  GI50: > 10 µM (inactive)
SK-MEL-28
  GI50: > 10 µM (inactive)
U-251
  GI50: > 10 µM (inactive)
HCT-116
  GI50: > 10 µM (inactive)
RPMI-8226
  GI50: > 10 µM (inactive)
HCC 2998
  GI50: > 10 µM (inactive)
LOX IMVI
  GI50: > 10 µM (inactive)
HL-60
  GI50: 0.00575 µM (active)
SK-MEL-5
  GI50: > 10 µM (inactive)
NCI-H522
  GI50: > 10 µM (inactive)
ACHN
  GI50: > 10 µM (inactive)
DU-145
  GI50: > 10 µM (inactive)
SNB-19
  GI50: > 10 µM (inactive)
HOP-62
  GI50: > 10 µM (inactive)
NCI/ADR-RES
  GI50: > 10 µM (inactive)
OVCAR-4
  GI50: > 10 µM (inactive)
HCT-15
  GI50: > 10 µM
786-0
  GI50: > 10 µM (inactive)
Hs-578T
  GI50: > 10 µM (inactive)
UACC-62
  GI50: > 10 µM (inactive)
SR
  GI50: > 10 µM (inactive)
SW-620
  GI50: > 10 µM (inactive)
PC-3
  GI50: > 10 µM (inactive)
SNB-75
  GI50: > 10 µM (inactive)
HOP-92
  GI50: > 10 µM (inactive)
OVCAR-8
  GI50: > 10 µM (inactive)
NCI-H226
  GI50: > 10 µM (inactive)
MCF7
  GI50: > 10 µM (inactive)
BT-549
  GI50: > 10 µM (inactive)
A498
  GI50: > 10 µM (inactive)
SF-268
  GI50: > 10 µM (inactive)
TK-10
  GI50: > 10 µM (inactive)
MDA-MB-435
  GI50: > 10 µM (inactive)
MOLT-4
  GI50: > 10 µM (inactive)
K562
  GI50: 0.566 µM (active)
EKVX
  GI50: > 10 µM (inactive)
SF-539
  GI50: > 10 µM (inactive)
RXF 393
  GI50: > 10 µM (inactive)
CAKI-1
  GI50: > 10 µM (inactive)
A549
  GI50: > 10 µM (inactive)
NCI-H23
  GI50: > 10 µM (inactive)
T47D
  GI50: > 10 µM (inactive)
COLO 205
  GI50: > 10 µM (inactive)
OVCAR-3
  GI50: > 10 µM (inactive)

## CCN(CC)CCOc1ccc(N2Cc3ccccc3C2=O)cc1
NCI-H460
  GI50: 7.28 µM (inactive)
CCRF-CEM
  GI50: > 10 µM (inactive)
Malme-3M
  GI50: > 10 µM (inactive)
SK-MEL-2
  GI50: > 10 µM (inactive)
SK-OV-3
  GI50: > 10 µM (inactive)
M14
  GI50: > 10 µM (inactive)
IGROV-1
  GI50: > 10 µM (inactive)
MDA-MB-231
  GI50: > 10 µM (inactive)
SN12C
  GI50: > 10 µM (inactive)
HT-29
  GI50: > 10 µM (inactive)
UACC-257
  GI50: > 10 µM (inactive)
SF-295
  GI50: > 10 µM (inactive)
OVCAR-5
  GI50: > 10 µM (inactive)
MDA-N
  GI50: > 10 µM (inactive)
SK-MEL-28
  GI50: > 10 µM (inactive)
U-251
  GI50: > 10 µM (inactive)
HCT-116
  GI50: > 10 µM (inactive)
RPMI-8226
  GI50: > 10 µM (inactive)
HCC 2998
  GI50: > 10 µM (inactive)
LOX IMVI
  GI50: > 10 µM (inactive)
HL-60
  GI50: > 10 µM (inactive)
SK-MEL-5
  GI50: > 10 µM (inactive)
NCI-H522
  GI50: > 10 µM (inactive)
ACHN
  GI50: > 10 µM (inactive)
DU-145
  GI50: > 10 µM (inactive)
SNB-19
  GI50: > 10 µM (inactive)
HOP-62
  GI50: > 10 µM (inactive)
NCI/ADR-RES
  GI50: > 10 µM (inactive)
OVCAR-4
  GI50: > 10 µM (inactive)
HCT-15
  GI50: > 10 µM
786-0
  GI50: > 10 µM (inactive)
Hs-578T
  GI50: > 10 µM (inactive)
UACC-62
  GI50: > 10 µM (inactive)
SR
  GI50: > 10 µM (inactive)
SW-620
  GI50: > 10 µM (inactive)
PC-3
  GI50: > 10 µM (inactive)
SNB-75
  GI50: > 10 µM (inactive)
HOP-92
  GI50: > 10 µM (inactive)
OVCAR-8
  GI50: > 10 µM (inactive)
NCI-H226
  GI50: > 10 µM (inactive)
MCF7
  GI50: > 10 µM (inactive)
BT-549
  GI50: > 10 µM (inactive)
A498
  GI50: > 10 µM (inactive)
SF-268
  GI50: > 10 µM (inactive)
TK-10
  GI50: > 10 µM (inactive)
MDA-MB-435
  GI50: > 10 µM (inactive)
UO-31
  GI50: > 10 µM (inactive)
MOLT-4
  GI50: > 10 µM (inactive)
K562
  GI50: > 10 µM (inactive)
EKVX
  GI50: > 10 µM (inactive)
SF-539
  GI50: > 10 µM (inactive)
RXF 393
  GI50: > 10 µM (inactive)
CAKI-1
  GI50: > 10 µM (inactive)
A549
  GI50: > 10 µM (inactive)
NCI-H23
  GI50: > 10 µM (inactive)
T47D
  GI50: > 10 µM (inactive)
COLO 205
  GI50: > 10 µM (inactive)
OVCAR-3
  GI50: > 10 µM (inactive)

Source: ChEMBL document CHEMBL1201862, “PubChem BioAssay data set” (2004)
